Experimental data reported in patent US20230125667A1, “NOVEL TDZD ANALOGS AS AGENTS THAT DELAY, PREVENT, OR REVERSE AGE-ASSOCIATED DISEASES AND AS ANTI-CANCER AND ANTILEUKEMIC AGENTS” (United States Government as represented by the Department …, priority 2020, published 2023).

How the values were obtained:
C. elegans = conditions: in vivo; cited from earlier work
wild-type nematodes = assay: Lifespan of C. elegans; format: in vivo; conditions: FIG. 8
Method: It was previously shown that several interventions that improve age-associated phenotypes also modulate lifespan (Ayyadevara et al. (2017) Antioxid Redox Signal. 27(17): 1383-1396; Ayyadevara et al. (2005) Aging Cell. 4(5): 257-271). The lifespan was assessed in C. elegans, either mock-treated or exposed to TDZD analogues. PNR-962 and BSK-179 extended the lifespan of wild-type nematodes to an identical degree, increasing the mean by roughly 25-30% (P<0.001; FIG. 8).
To obtain synchronized eggs for lifespan studies, worms were maintained for 2 generations, free of contamination and starvation. Healthy, well-fed adult worms from the 2nd generation were then lysed, and eggs placed on plates with appropriate doses of TDZD analogue PNR962, or DMSO vehicle alone (for a final concentration of 0.02% v/v DMSO). At the L4 larval stage, worms were transferred daily to fresh plates for 7 days, and thereafter on alternate days until all the worms are dead. C. elegans that moved spontaneously or responded to gentle prodding were scored as alive. For the mortality computation, worms that were lost for reasons other than natural death were censored. The methods described were adopted from previously described experimental procedures (Ayyadevara, et al. (2016) PIP3-binding proteins promote age-dependent protein aggregation and limit survival in C. elegans. Oncotarget, 7(31): 48870-48886; Bharill, et al. (2013) Extreme Depletion of PIP3 Accompanies the Increased Life Span and Stress Tolerance of PI3K-null C. elegans Mutants. Frontiers in Genetics, 4).

SH-SY5Y-APPSw cells = assay: Thioflavin-T staining of amyloid-like aggregates in SH-SY5Y-APPSw cells; format: cell-based, human
Method: (§1) Several TDZD-conjugated drugs (putative GSK-3 inhibitors) were evaluated for their ability to reduce accumulation of protein aggregates, and for protection against aggregation-associated end-points in the following model systems: (i.) SH-SY5Y-APPSw, a neuroblastoma cell line expressing the Swedish mutation of Amyloid Precursor Protein (APPSw), and thus predisposed to form β-amyloid deposits; (ii.) C. elegans strain CL4176, a model of Alzheimer-like amyloidopathy that can be induced to express human Aβ1-42 in muscle, or may express it at a lower level without induction; (iii.) C. elegans strain AM141, a model of Huntington-like polyglutamine aggregation that constitutively expresses Q40::YFP (a tract of 40 glutamines fused in-frame to yellow fluorescent protein) in muscle cells and forms aggregates progressively with adult aging. The TDZD analog PNR-962 (a putative GSK-3 inhibitor) and other related compounds (not shown) were protective in all aggregation assays.
First, the effects of TDZD analogues were tested on the human neuroblastoma cell line SH-SY5Y-APPSw, a model of Alzheimer-like amyloid aggregation expressing the “Sw” mutant form of Amyloid Precursor Protein, APP. These drugs all produced significant reductions in amyloid-like aggregates, by 30-50% as quantified by thioflavin-T staining intensity (data for PNR-962 are shown in FIG. 4). Modified TDZD-8 analogues PNR-962 and BSK-179 are more anti-aggregative than TDZD-8, lowering total amyloid-staining intensity by a further 14% (data not shown).
Following previously described experimental procedures (Liu, et al. (2005). S100B-induced microglial and neuronal IL-1 expression is mediated by cell type-specific transcription factors. Journal of Neurochemistry. 92(3): 546-553), SH-SY5Y-APPSw neuronal cells expressing an aggregation-prone double mutant of amyloid precursor protein (APPSw) were cultured in DMEM plus 10% (v/v) fetal bovine serum (FBS) at 37° C. Cells were suspended in trypsin/EDTA and rinsed in PBS prior to re-plating or harvesting. […] Human neuroblastoma cells were treated with PNR962, either simultaneous with sAPPα or beginning 1 h prior to sAPPα addition (pre-treatment) in order to ascertain the protective benefits of PNR962 on protein aggregation in human neuroblastoma cell lines. A similar experimental procedure was followed to examine the effect of treatment with these analogs on non-neuronal human cells, exposing human embryonic kidney cells (HEK) that express tau-like aggregates (found in AD-associated diseases) to 0.001, 0.01, and 1-μM doses of TDZD-8 and its analogues.
To observe the protective effects of the novel TDZD analogs on protein aggregation in SY5Y-APPSw cells, using DMEM medium containing 10% fetal calf serum in […], cells were cultured at 37′C for 26 hrs allowing cells to approximately double in number. After 48 h of cell incubation in the presence of specified concentrations of drug or vehicle, cells were fixed 15 min in formaldehyde (4% v/v), washed, and stained 20 min at ˜22° C. in a dark container with 0.1% w/v Thioflavin T mixed with DAPI (1 μg/ml; Life Technologies, Grand Island, N.Y., USA). […] The intensity of aggregate/thioflavin-T fluorescence per field was quantified via an Image J plug-in developed in-house, and normalized to the number of DAPI^+ nuclei counted per field, to obtain an average intensity of aggregates per cell for each treatment.

C. elegans strain AM141 = assay: Q40::YFP aggregates in C. elegans strain AM141; format: in vivo
Method: as §1
Fresh agar plates supporting bacterial lawns, which serve as food for C. elegans, were prepared at least 1 day ahead of use. C. elegans AM141 (forming Q40::YFP aggregates in muscle, progressively in early adulthood) were placed on these 100-mm plates. Day-4 adult worms were lysed with alkaline hypochlorite solution to obtain eggs from worms, a procedure that permits synchronization of worms in a cohort. Eggs were placed on plates spotted with different concentrations of TDZD analogues after allowing the compounds to be evenly distributed on the plates (˜1 hour after adding drugs to plates). Vehicle-only (DMSO) controls are included in each experiment, as a baseline for drug effects in experimental groups. Young-adult AM141 (day-3 adults) were transferred on alternate days onto fresh plates that contained the same doses of compounds, with fresh E. coli to prevent starvation of worms. Equal samples (n=25) were randomly picked from experimental groups and control group for microscopic imaging. Using an in-house plugin for ImageJ software (NIH), several images of AM141 were processed for aggregate count per worm. The fluorescence intensity of each aggregate (indicating the size/content of protein aggregates) was also measured. Each drug treatment was repeated multiple times to validate the results.

Row | SMILES | extension of nematode lifespan (C. elegans) [%] | lifespan (wild-type nematodes) | further lowering of total amyloid-staining intensity relative to TDZD-8 (SH-SY5Y-APPSw cells; data not shown) [%] | amyloid accumulation (thioflavin T stained foci) (SH-SY5Y-APPSw cells; treated for 2 days (FIG. 9)) | number of aggregation foci (C. elegans strain AM141; C. elegans model of Huntington's Disease (FIG. 7)) | reduction of total intensity of Q40::YFP aggregates (C. elegans strain AM141; FIG. 7) [fold]
1 | CC(=O)Oc1ccccc1C(=O)O [aspirin, acetylsalicylic acid, reference compound] | 22 | increased |  |  |  | 
2 | CC(=O)Oc1ccccc1C(=O)NCc1ccc(Cn2c(=O)sn(CCCl)c2=O)cc1 [BSK-179] |  | increased | 14 | reduces amyloid accumulation | decreases | > 2
